Results published in patent US9643967B2, “Pyrrolo[3,2-c]pyridine derivatives as TLR inhibitors” (TAKEDA PHARMACEUTICAL COMPANY LIMITED, priority 2013, dated 2017).
Like-named read-outs stand apart in the source and are kept apart here.

Target: T1, mTLR7 (Mus musculus, UniProt P58681)
T1 construct: Splenocytes isolated from male C57/BL6 mice; from tissue; host or cells: splenocytes from the spleen of male C57BL/6 mice
T1 sequence (P58681 27-1050): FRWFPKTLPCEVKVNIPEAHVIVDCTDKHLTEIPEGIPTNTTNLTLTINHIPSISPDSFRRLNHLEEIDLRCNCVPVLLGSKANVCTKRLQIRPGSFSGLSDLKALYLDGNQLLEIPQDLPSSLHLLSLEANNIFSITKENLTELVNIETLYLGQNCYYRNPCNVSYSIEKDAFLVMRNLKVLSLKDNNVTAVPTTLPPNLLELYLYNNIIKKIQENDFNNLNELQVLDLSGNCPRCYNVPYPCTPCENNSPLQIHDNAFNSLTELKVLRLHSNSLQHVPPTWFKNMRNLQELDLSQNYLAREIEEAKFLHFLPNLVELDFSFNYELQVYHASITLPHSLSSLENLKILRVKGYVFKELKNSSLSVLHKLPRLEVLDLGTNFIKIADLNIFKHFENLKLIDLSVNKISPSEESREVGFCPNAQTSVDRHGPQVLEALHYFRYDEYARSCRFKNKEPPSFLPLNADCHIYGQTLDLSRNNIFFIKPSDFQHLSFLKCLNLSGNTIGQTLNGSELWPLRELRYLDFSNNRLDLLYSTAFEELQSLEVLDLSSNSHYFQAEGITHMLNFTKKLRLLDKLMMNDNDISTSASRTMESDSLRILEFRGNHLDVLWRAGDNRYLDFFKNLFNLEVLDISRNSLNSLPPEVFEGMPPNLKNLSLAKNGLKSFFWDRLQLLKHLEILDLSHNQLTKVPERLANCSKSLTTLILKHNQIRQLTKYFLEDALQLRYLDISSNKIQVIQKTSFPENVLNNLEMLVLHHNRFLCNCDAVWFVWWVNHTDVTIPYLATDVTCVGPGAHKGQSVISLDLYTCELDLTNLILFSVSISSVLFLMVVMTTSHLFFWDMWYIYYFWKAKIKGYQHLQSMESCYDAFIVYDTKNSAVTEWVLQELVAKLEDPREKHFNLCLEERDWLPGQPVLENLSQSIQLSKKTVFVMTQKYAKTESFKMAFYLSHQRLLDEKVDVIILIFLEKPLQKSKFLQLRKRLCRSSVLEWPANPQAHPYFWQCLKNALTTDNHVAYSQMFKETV
Assay: mTLR7 antagonism (IL-6 and TNF-α release assay) in mouse splenocytes, R0006/DOTAP stimulated
Type: cell-based
Conditions: 1 μM, mouse splenocytes
Excerpt: mTLR9 and mTLR7 Antagonism (Cytokine Release Assay) in Mouse Splenocytes
TLR7 ligand R0006 (IDT, 5′-rU*rU*rG*rU*rU*rG*rU*rU*rG*rU*rU*rG*rU*rU*rG*rU*rU*rG*rU*rU-3′ (SEQ ID NO:1)), Liposomal transfection reagent—DOTAP (Roche, Cat. No. 11202375001), TLR9 ligand CpG ODN2006 (Sequence: T*C*G*T*C*G*T*T*T*T*G*T*C*G*T*T*T*T*G*T*C*G*T*T; *=phosphorothioate (SEQ ID NO:2)) DMSO (Sigma, D2650), RPMI Powder (Sigma, R6504), Fetal Bovine Serum (Gibco, 10270), Dulbecco's Phosphate Buffered Saline (Sigma, D1408), 96 well plate (Flat bottom, Costar 3599), ELISA kit for IL-6 (EBioscience, 88-7064-77 and TNFa (EBioscience, 88-7346-88), MACS Buffer (AutoMACS Rinsing Solution (Miltenyl Biotec, 130-091-222)+0.05% BSA), RBC lysis buffer (0.85% NH4Cl), 40 μm cell strainer (BD Falcon, 352340) Method: A. Isolation of Mouse Splenocytes
Mouse spleen was isolated from C57BL6 mouse and stored in 1× chilled PBS buffer until further processed. Spleen was transferred to a sterile petriplate and chopped in to 5-6 pieces in presence of MACS buffer (100 μl) with the help of fresh surgical blade and crushed with flat plunger of a sterile syringe. A uniform suspension was prepared by passing cells through a 40 μm cell strainer. Cells were centrifuged at 450×g for 5 minutes at 4° C., supernatant was discarded and pellet dislodged gently, resuspended in 2 ml of pre-warmed (37° C.) RBC lysis buffer at room temperature with continuous gentle mixing with 1 ml pipette. Lysis buffer was neutralized with 12 ml of chilled MACS buffer and cells were passed through 40 μm cell strainer. Cell suspension was collected in 15 ml MACS buffer and centrifuged at 450×g for 5 minutes at 4° C. Pellet was resuspended in 15 ml MACS buffer and centrifuged at 400×g for 5 minutes. Cells were resuspended in 10 ml of RPMI complete medium and viability was estimated by Trypan blue method.
mTLR7 Antagonism (IL-6 and TNF-α Release Assay):
1 mg/ml stock of R0006 was prepared in sterile, endotoxin-free water. R0006 stock was diluted 10 fold with DOTAP and incubated for 30 minutes to form liposome complex (100 μg/ml of R0006). This complex was further diluted 10 fold with incomplete RPMI media (10 μg/ml of R0006) to achieve the final agonist concentration of 1 μg/ml. DOTAP alone was diluted 10 fold in incomplete RPMI media. NCEs were added in a concentration range of 30 μM to 1 nM in respective wells of assay plate, assay medium containing 0.3% DMSO were added to control wells. 0.2 million splenocytes were added to all the wells and incubated at 37° C. in 5% CO2 incubator for 30 minutes. 1 μg/ml of respective agonist was added to all the wells except those were assigned as negative controls and mixed thoroughly. DOTAP was added to negative control wells and incubated overnight at 37° C./5% CO2. The plate was centrifuged at 450×g for 5 minutes at room temperature and the supernatant was collected. ELISA was performed as per manufacturer's protocol. S/B Ratio, % Activity and % Inhibition was calculated using MS Excel. IC50 and inhibition curve was generated using Graph Pad Prism.

[1] = IL-6 release, read-out: mTLR7 inhibitory activity (% at 1 μM), IL-6
[2] = TNF-α release, read-out: mTLR7 inhibitory activity (% at 1 μM), TNF-α

Row | SMILES | inhibition at 1 µM [1] | inhibition at 1 µM [2] | mTLR7 inhibitory activity (% at 1 μM), IL-6 (IL-6 release) | mTLR7 inhibitory activity (% at 1 μM), TNF-α (TNF-α release)
1 | CC(C)N1CCN(c2ccc(-c3nccc4[nH]c(CN5CCC6(CC5)CC(O)C6)cc34)cc2)CC1 [Example A13, 7-[[4-[4-(4-isopropylpiperazin-1-yl)phenyl]-1H-pyrrolo[3,2-c]pyridin-2-yl]methyl]-7-azaspiro[3.5] nonan-2-ol] | 98% | 91% | – | –
2 | CN1CCN(c2cccc(-c3nccc4[nH]c(CN5CCOCC5)cc34)c2)CC1 [Example A61, 4-[[4-[3-(4-methylpiperazin-1-yl)phenyl]-1H-pyrrolo[3,2-c]pyridin-2-yl]methyl]morpholine] | 78% | 74% | – | –
3 | CC(C)N1CCN(C2CCC(c3nccc4[nH]c(CN5CCOCC5)cc34)CC2)CC1 (stereo not drawn) [Example A80, 4-[[4-[4-(4-isopropylpiperazin-1-yl)cyclohexyl]-1H-pyrrolo[3,2-c]pyridin-2-yl]methyl]morpholine] | 18% | 16% | – | –
4 | Cc1cc2[nH]c(CN3CCOCC3)cc2c(-c2ccc(N3CCN(C(C)C)CC3)cc2)n1 [Example A4, 4-[[4-[4-[4-isopropylpiperazin-1-yl)phenyl]-6-methyl-1H-pyrrolo[3,2-c]pyridin-2-yl]methyl] morpholine] | 100% | 100% | – | –
5 | CC(C)N1CCN(c2ccc(-c3nccc4[nH]c(CN5CCOCC5)cc34)cn2)CC1 [Example A53, 4-[[4-[6-(4-isopropylpiperazin-1-yl)-3-pyridyl]-1H-pyrrolo[3,2-c]pyridin-2-yl]methyl]morpholine] | 100% | 83% | – | –
6 | CCN1CCN(c2ccc(-c3nc(C)cc4[nH]c(CN5CCOCC5)cc34)cc2)CC1 [Example A5, 4-[[4-[4-(4-ethylpiperazin-1-yl)phenyl]-6-methyl-1H-pyrrolo[3,2-c]pyridin-2-yl]methyl] morpholine] | 100% | 100% | – | –
7 | CC(C)N1CCC(c2ccc(-c3nccc4[nH]c(CN5CCOCC5)cc34)cn2)CC1 [Example A64, 4-[[4-[6-(1-isopropyl-4-piperidyl)-3-pyridyl]-1H-pyrrolo[3,2-c]pyridin-2-yl]methyl]morpholine] | 13% | 4% | – | –
8 | CC(C)N1CCN(c2ccc(-c3nccc4[nH]c(CN5CCC(O)CC5)cc34)cc2)CC1 [Example A12, 1-[[4-[4-(4-isopropylpiperazin-1-yl)phenyl]-1H-pyrrolo[3,2-c]pyridin-2-yl]methyl] piperidin-4-ol] | 80% | 45% | – | –
9 | c1cc2[nH]c(CN3CCOCC3)cc2c(-c2ccc(N3CCNCC3)cc2)n1 [Example A42, 4-[[4-(4-(piperazin-1-yl)phenyl)-1H-pyrrolo[3,2-c]pyridin-2-yl]methyl] morpholine] | 34% | 9% | – | –
10 | CN1CCN(Cc2ccc(-c3nccc4[nH]c(CN5CCOCC5)cc34)cc2)CC1 [Example A60, 4-[[4-[4-[(4-methylpiperazin-1-yl)methyl]phenyl]-1H-pyrrolo[3,2-c]pyridin-2-yl]methyl]morpholine] | – | 29% | – | –

More lines, now with the values ahead:

Row | inhibition at 1 µM [1] | inhibition at 1 µM [2] | mTLR7 inhibitory activity (% at 1 μM), IL-6 (IL-6 release) | mTLR7 inhibitory activity (% at 1 μM), TNF-α (TNF-α release) | SMILES
11 | 88% | 83% | – | – | Cc1cc2c(cc(CCN3CCOCC3)n2C)c(-c2ccc(N3CCN(C(C)C)CC3)cc2C)n1 [Example B15, 4-[2-[4-[4-(4-isopropylpiperazin-1-yl)-2-methyl-phenyl]-1,6-dimethyl-pyrrolo[3,2-c]pyridin-2-yl]ethyl]morpholine]
12 | 100% | 100% | – | – | Cc1cc2c(cc(CCN3CCOCC3)n2C)c(-c2ccc(C3CCN(C(C)C)CC3)cc2)n1 [Example B31, 4-[2-[4-[4-(1-isopropyl-4-piperidyl)phenyl]-1,6-dimethyl-pyrrolo[3,2-c]pyridin-2-yl]ethyl]morpholine]
13 | 93% | 90% | – | – | Cc1cc2c(cc(CCN3CCOCC3)n2C)c(-c2ccc(N3CCN(C(C)C)CC3)cc2C(F)(F)F)n1 [Example B17, 4-[2-[4-[4-(4-isopropylpiperazin-1-yl)-2-(trifluoromethyl)phenyl]-1,6-dimethyl-pyrrolo[3,2-c]pyridin-2-yl]ethyl]morpholine]
14 | 100% | 100% | – | – | Cc1cc2c(cc(CCN3CCOCC3)n2C)c(-c2ccc(N3CCN(C(C)C)CC3)cc2)n1 [Example B11, 4-[2-[4-[4-(4-isopropylpiperazin-1-yl)phenyl]-1,6-dimethyl-pyrrolo[3,2-c]pyridin-2-yl]ethyl]morpholine]
15 | 100% | 100% | – | – | Cc1cc2c(cc(CCN3CCOCC3)n2C)c(-c2ccc(N3CCN(C(C)C)[C@@H](C)C3)cc2)n1 [Example B23, 4-[2-[4-[4-[(3S)-4-isopropyl-3-methyl-piperazin-1-yl]phenyl]-1,6-dimethyl-pyrrolo[3,2-c]pyridin-2-yl]ethyl]morpholine]
16 | 100% | 100% | – | – | Cc1cc2c(cc(CCN3CCOCC3)n2C)c(-c2cccc(N3CCN(C(C)C)CC3)c2)n1 [Example B21, 4-[2-[4-[3-(4-isopropylpiperazin-1-yl)phenyl]-1,6-dimethyl-pyrrolo[3,2-c]pyridin-2-yl]ethyl]morpholine]
17 | 100% | 100% | – | – | Cc1cc2c(cc(CCCN3CCOCC3)n2C)c(-c2ccc(N3CCN(C(C)C)CC3)cc2)n1 [Example C6, 4-[3-[4-[4-(4-isopropylpiperazin-1-yl)phenyl]-1,6-dimethyl-pyrrolo[3,2-c]pyridin-2-yl]propyl]morpholine]
18 | – | – | 88% | 77% | Cc1cc2c(cc(CCN3CCOCC3)n2C)c(C2CCC(N3CCN(C(C)C)CC3)CC2)n1 (stereo not drawn) [Example B27, 4-[2-[4-[4-(4-isopropylpiperazin-1-yl)cyclohexyl]-1,6-dimethyl-pyrrolo[3,2-c]pyridin-2-yl]ethyl]morpholine]
19 | – | 100% | – | – | Cc1nc(-c2ccc(N3CCN(C)CC3)cc2)c2cc(CCN3CCOCC3)[nH]c2c1C [Example B7, 4-[2-[6,7-dimethyl-4-[4-(4-methylpiperazin-1-yl)phenyl]-1H-pyrrolo[3,2-c]pyridin-2-yl]ethyl]morpholine]
